The record followed here is US7452894B2, “Purine derivatives as purinergic receptor antagonists” (Vernalis Research Limited, priority 2001, dated 2008).

SMILES strings stand for the structures. Read-outs that look alike come from different tables or passages of the source. Where only a bound is given, the exact number is not on record here.

Data set [1] concerns the target human adenosine A2A receptors (Homo sapiens, UniProt P29274). Kind of data set: Binding affinities at hA2A receptors, displacement of [3H]-CGS 21680. On the technique in general: In a radioligand displacement assay an active substance lowers the binding of a labelled ligand.
[2] abbreviates: human adenosine A2A receptor, radioligand [3H]-CGS 21680.

human adenosine A2A receptors, sequence (P29274 whole entry): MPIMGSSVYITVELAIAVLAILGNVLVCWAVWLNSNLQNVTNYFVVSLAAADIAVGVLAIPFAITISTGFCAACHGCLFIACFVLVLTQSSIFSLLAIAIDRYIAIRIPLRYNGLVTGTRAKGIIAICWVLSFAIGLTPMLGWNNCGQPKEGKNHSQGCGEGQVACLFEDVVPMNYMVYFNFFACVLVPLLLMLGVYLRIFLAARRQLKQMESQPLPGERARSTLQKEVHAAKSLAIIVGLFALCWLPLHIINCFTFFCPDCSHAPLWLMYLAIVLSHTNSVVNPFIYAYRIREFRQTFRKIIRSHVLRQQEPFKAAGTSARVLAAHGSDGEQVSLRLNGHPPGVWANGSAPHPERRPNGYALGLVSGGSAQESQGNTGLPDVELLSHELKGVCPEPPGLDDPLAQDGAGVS

As for `CN(C)c1nc(-c2ccco2)c2nc[nH]c2n1` [Example 3, N,N-Dimethyl-6-(2-furyl)-1H-purine-2-amine], the affinity in data set [1], expressed as Ki, was 23 nM.
Turning to `Nc1nc(-c2ccco2)c2ncn(C(=O)NCc3ccccc3)c2n1` [Example 26, 2-Amino-N-benzyl-6-(2-furyl)-9H-purine-9-carboxamide], the inhibition constant Ki – broadly, a measure of affinity in units of concentration, obtained from inhibition or displacement – in data set [1] (setting [2]) was 1 nM.
In turn, `CCCCNC(=O)n1cnc2c(-c3ccco3)nc(N)nc21` [Example 36, 2-Amino-N-n-butyl-6-(2-furyl)-9H-purine-9-carboxamide] displayed an inhibition constant (Ki) in data set [1] of 7 nM.
Still for that read-out and setting: then `COc1ccc(CNC(=O)n2cnc3c(-c4ccco4)nc(N)nc32)cc1` [Example 37, 2-Amino-6-(2-furyl)-N-(4-methoxybenzyl)-9H-purine-9-carboxamide], with 4 nM.
In turn, `Cc1ccc(CNC(=O)n2cnc3c(-c4ccco4)nc(N)nc32)cc1` [Example 38, 2-Amino-6-(2-furyl)-N-(4-methylbenzyl)-9H-purine-9-carboxamide] gave a Ki in data set [1] (setting [2]) of 1 nM.
On the same count and under the same terms, the result for `Nc1nc(-c2ccco2)c2ncn(C(=O)NCc3ccccc3Cl)c2n1` [Example 39, 2-Amino-N-(2-chlorobenzyl)-6-(2-furyl)-9H-purine-9-carboxamide] reads 1 nM.
With `C[C@H](NC(=O)n1cnc2c(-c3ccco3)nc(N)nc21)c1ccccc1` [Example 45, (1S)-2-Amino-6-(2-furyl)-N-(1-phenyethyl)-9H-purine-9-carboxamide], the Ki in data set [1] (setting [2]) worked out at 2 nM.
Regarding `Nc1nc(-c2ccco2)c2ncn(CC(=O)Nc3ccncc3)c2n1` [Example 142, 2-Amino-6-(2-furyl)-N-(4-pyridyl)-9H-purine-9-acetamide], the melting point (commonly the temperature, or range, at which the solid turns liquid) fell in the range of 281.3 to 283.2 °C.
Still for that read-out and setting: then `Nc1nc(-c2ccco2)c2ncn(CC(=O)Nc3cccnc3)c2n1` [Example 143, 2-Amino-6-(2-furyl)-N-(3-pyridyl)-9H-purine-9-acetamide], with 285.6 to 286.4 °C.
On the same count and under the same terms, then `Nc1nc(-c2ccco2)c2ncn(CC(=O)NCc3ccc(Cl)cc3)c2n1` [Example 144, 2-Amino-N-(4-chlorobenzyl)-6-(2-furyl)-9H-purine-9-acetamide], with 277 °C (dec.); and `CN(Cc1ccccc1)C(=O)Cn1cnc2c(-c3ccco3)nc(N)nc21` [Example 145, 2-Amino-N-benzyl-6-(2-furyl)-N-methyl-9H-purine-9-acetamide], with 224 to 224.1 °C.
As to `Cc1ccsc1-c1nc(N)nc2[nH]cnc12` [Example 150, 6-(3-Methyl-2-thienyl)-1H-purine-2-amine], the melting point was in the range of 247 to 248 °C.
Same read-out and setting: the result for `Cc1nc(-c2ccco2)c2nc[nH]c2n1` [Example 153, 6.(2-Furyl)-2-methyl-1H-purine] reads 342 °C (dec.); that for `COc1ccc(NC(=O)Cn2cnc3c(-c4ccco4)nc(N)nc32)c(C)c1` [Example 169, 2-Amino-6-(2-furyl)-N-(4-methoxy-2-methylphenyl)-9H-purine-9-acetamide], 287.1 to 288.2 °C.
On the same count and under the same terms, then `Cc1ccc(Cn2cnc3c(-c4ccco4)nc(C#N)nc32)cc1` [Example 173, 6-(2-Furyl)-9-(4-methylbenzyl)-9H-purine-2-carbonitrile], with 196.5 °C (dec.); and `Nc1nc(-c2ccco2)c2ncn(CCN3C(=O)c4ccccc4C3=O)c2n1` [Example 174, 6-(2-Furyl)-9-(2-phthalimidoethyl)-9H-purine-2-amine], with 160 °C (dec.).
On the same count and under the same terms, the result for `N#Cc1cccc(Cn2cnc3c(-c4ccco4)nc(N)nc32)c1` [Example 177, 9-(3-Cyanobenzyl)-6-(2-furyl)-9H-purine-2-amine] reads 302.5 to 304.8 °C; that for `Cc1ccc(-c2nc(N)nc3[nH]cnc23)o1` [Example 195, 6-(5-Methyl-2-furyl)-1H-purine-2-amine], > 190 °C (dec.); that for `Nc1nc(-c2ccco2)c2ncn(Cc3ccccc3[N+](=O)[O-])c2n1` [Example 197, 6-(2-Furyl)-9-(2-nitrobenzyl)-9H-purine-2-amine], 290.6 to 290.7 °C.
On to `Nc1nc(-c2ccco2)c2ncn(Cc3cccc(F)c3)c2n1` [Example 203, 9-(3-Fluorobenzyl)-6-(2-furyl)-9H-purine-2-amine], for which the melting point lay within 218.2 to 218.5 °C.
Consider `Cc1ccc(-c2nc(N)nc3c2ncn3C(=O)NCc2ccccc2)o1` [Example 204, 2-Amino-N-benzyl-6-(5-methyl-2-furyl)-9H-purine-9-carboxamide], for which the melting point was 160 °C (dec.).
Still for that read-out and setting: then `Cn1cncc1-c1nc(N)nc2[nH]cnc12` [Example 209, 6-(1-Methyl-1H-imidazol-5-yl)-1H-purine-2-amine], with 300 °C (dec.).
Still for that read-out and setting: then `CS(=O)(=O)Nc1ccccc1Cn1cnc2c(-c3ccco3)nc(N)nc21` [Example 210, 6-(2-Furyl)-9-(2-methanesulphonylaminobenzyl)-9H-purine-2-amine], with 254.7 to 255.3 °C.
As for `COC(=O)c1ccc(Cn2cnc3c(-c4ccco4)nc(N)nc32)cc1` [Example 215, Methyl 4-(2-amino-6-(2-furyl)-9H-purine-9-ylmethyl)benzoate], the melting point was in the range of 219.5 to 219.7 °C.
Same read-out and setting: then `Nc1nc(-c2ccco2)c2ncn(Cc3ccc(C(=O)O)cc3)c2n1` [Example 216, 4-(2-Amino-6-(2-furyl)-9H-purine-9-ylmethyl)benzoic acid], with 301.1 to 302.1 °C; and `CS(=O)(=O)Nc1cccc(Cn2cnc3c(-c4ccco4)nc(N)nc32)c1` [Example 217, 6-(2-Furyl)-9-(3-methanesulphonylaminobenzyl)-9H-purine-2-amine], with 171.2 to 171.3 °C; and `Nc1nc(-c2ccco2)c2ncn(CC(=O)NCc3ccco3)c2n1` [Example 218, 2-Amino-6-(2-furyl)-N-(2-furylmethyl)-9H-purine-9-acetamide], with 276.4 to 276.9 °C.
On the same count and under the same terms, then `COc1cc(Cn2cnc3c(-c4ccco4)nc(N)nc32)cc(OC)c1` [Example 219, 9-(3,5-Dimethoxybenzyl)-6-(2-furyl)-9H-purine-2-amine], with 205.3 to 205.4 °C; and `Nc1nc(-c2ccco2)c2ncn(Cc3cccc(C(=O)NCc4ccccc4)c3)c2n1` [Example 226, 3-(2-Amino-6-(2-furyl)-9H-purine-9-ylmethyl)-N-benzylbenzamide], with 243.2 to 243.8 °C.
For `Nc1nc(-c2ccco2)c2ncn(Cc3ccc(C(=O)NCc4ccccc4)cc3)c2n1` [Example 227, 4-(2-Amino-6-(2-furyl)-9H-purine-9-ylmethyl)-N-benzylbenzamide], the melting point was in the range of 170 to 171.9 °C.
Consider `Cc1noc(C)c1Cn1cnc2c(-c3ccco3)nc(N)nc21` [Example 229, 9-(3,5-Dimethylisoxazol-4-ylmethyl)-6-(2-furyl)-9H-purine-2-amine], for which the melting point lay within 282.4 to 282.6 °C.
Same read-out and setting: then `COc1cccc(NC(=O)Cn2cnc3c(-c4ccco4)nc(N)nc32)c1` [Example 231, 2-Amino-6-(2-furyl)-N-(3-methoxyphenyl)-9H-purine-9-acetamide], with 278.5 to 280.4 °C.
Same read-out and setting: then `CN(C)C(=O)c1ccc(Cn2cnc3c(-c4ccco4)nc(N)nc32)cc1` [Example 233, 4-(2-Amino-6-(2-furyl)-9H-purine-9-ylmethyl)-N,N-dimethylbenzamide], with 223.1 to 226.9 °C; and `COc1ccccc1CNC(=O)Cn1cnc2c(-c3ccco3)nc(N)nc21` [Example 236, 2-Amino-6-(2-furyl)-N-(2-methoxybenzyl)-9H-purine-9-acetamide], with 279.9 to 281 °C.
On the same count and under the same terms, then `Nc1nc(-c2ccco2)c2ncn(CC(=O)NCc3ccccc3F)c2n1` [Example 237, 2-Amino-N-(2-fluorobenzyl)-6-(2-furyl)-9H-purine9-acetamide], with 291.9 to 292.1 °C; and `Nc1nc(-c2ccco2)c2ncn(Cc3ccccc3NS(=O)(=O)c3cccs3)c2n1` [Example 238, 6-(2-Furyl)-9-(2-(2-thienylsulphonylamino)benzyl)-9H-purine-2-amine], with 265.6 to 266 °C; and `Cc1noc(C)c1S(=O)(=O)Nc1ccccc1Cn1cnc2c(-c3ccco3)nc(N)nc21` [Example 239, 6-(2-Furyl)-9-(2-(3,5-dimethylisoxazol-4-ylsulphonylamino)benzyl)-9H-purine-2-amine], with 251.4 to 253.1 °C.
The compound `Cc1ccc(-c2nc(N)nc3[nH]cnc23)nc1` [Example 241, 6-(5-Methyl-2-pyridinyl)-1H-purine-2-amine] gave a melting point of 246.2 to 248 °C.
The same measure, in the same setting: then `Cc1ccc(-c2nc(N)nc3c2ncn3Cc2ccccc2F)nc1` [Example 243, 9-(2-Fluorobenzyl)-6-(5-methyl-2-pyridinyl)-9H-purine-2-amine], with 299.8 °C; and `C[C@H](N)Cn1cnc2c(-c3ccco3)nc(N)nc21` [Example 251, (2S)-9-(2-Amino-1-propyl)-6-(2-furyl)-9H-purine-2-amine], with 247 to 252 °C.
On the same count and under the same terms, the result for `NCCn1cnc2c(-c3ccco3)nc(N)nc21` [Example 257, 9-(2-Aminoethyl)-6-(2-furyl)-9H-purine-2-amine] reads 190 °C (dec.); that for `Nc1nc(-c2ccn[nH]2)c2ncn(Cc3ccccc3F)c2n1` [Example 262, 9-(2-Fluorobenzyl)-6-(1H-pyrazol-3-yl)-9H-purine-2-amine], 257 to 259 °C; that for `Nc1nc(-c2cncs2)c2ncn(Cc3ccccc3F)c2n1` [Example 267, 9-(2-Fluorobenzyl)-6-(thiazol-5-yl)-9H-purine-2-amine], 190.5 to 190.6 °C.
Same read-out and setting: the result for `CC(C)(C)OC(=O)n1ccc2c(Cn3cnc4c(-c5ccco5)nc(N)nc43)cccc21` [Example 270, tert-butyl 4-(2-amino-6-(2-furyl)-1H-purine-9-ylmethyl)indole-1-carboxylate] reads 190.4 to 190.5 °C; that for `Nc1nc(-c2ccco2)c2ncn(Cc3cccc4[nH]ccc34)c2n1` [Example 271, 6-(2-Furyl)-9-(4-indolylmethyl)-9H-purine-2-amine], 305.4 to 306.8 °C.
